According to patent publication US9096951B2, “Method for producing second-generation library” (Nuevolution A/S, priority 2003, dated 2015):

What was measured:
Format in all cases: binding
Integrin αvβ3 receptor [1] = molecular target: T1, Integrin αvβ3 receptor (Homo sapiens, UniProt P05106+P06756); assay: Selection of Library 1 and Library 2 (61,875 members each) for binders of the Integrin αvβ3 receptor, then building block abundance analysis; conditions: value = library (1, 2) in which it was more abundant after selection; for More abundant in position 2 in library no.: building block chosen for Library 3 position 2; for More abundant in position 3 in library no.: building block chosen for Library 3 position 3
T1 sequence (P06756 31-889 limits assumed): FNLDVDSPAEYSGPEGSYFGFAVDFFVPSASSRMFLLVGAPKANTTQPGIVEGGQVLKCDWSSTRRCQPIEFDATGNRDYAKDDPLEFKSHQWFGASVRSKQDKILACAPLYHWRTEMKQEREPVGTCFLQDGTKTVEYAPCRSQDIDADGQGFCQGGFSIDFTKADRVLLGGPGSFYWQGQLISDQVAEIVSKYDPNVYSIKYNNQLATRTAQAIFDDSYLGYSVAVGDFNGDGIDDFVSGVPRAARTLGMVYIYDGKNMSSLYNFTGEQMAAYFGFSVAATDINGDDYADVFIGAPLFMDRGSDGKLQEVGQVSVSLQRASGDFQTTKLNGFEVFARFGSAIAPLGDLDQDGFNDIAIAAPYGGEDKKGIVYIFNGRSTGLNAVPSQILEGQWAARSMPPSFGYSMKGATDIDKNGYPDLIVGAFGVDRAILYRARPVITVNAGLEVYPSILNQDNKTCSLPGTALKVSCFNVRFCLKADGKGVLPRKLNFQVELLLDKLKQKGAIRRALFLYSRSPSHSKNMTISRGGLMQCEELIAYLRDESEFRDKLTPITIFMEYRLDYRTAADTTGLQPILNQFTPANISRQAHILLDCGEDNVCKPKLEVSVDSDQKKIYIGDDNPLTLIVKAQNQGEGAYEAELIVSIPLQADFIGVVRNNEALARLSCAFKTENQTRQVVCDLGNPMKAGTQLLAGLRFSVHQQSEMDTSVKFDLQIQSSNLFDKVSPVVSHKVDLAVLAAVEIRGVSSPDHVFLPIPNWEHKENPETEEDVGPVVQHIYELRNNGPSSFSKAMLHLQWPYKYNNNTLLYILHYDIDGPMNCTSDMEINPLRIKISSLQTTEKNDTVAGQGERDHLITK
T1 sequence (P06756 891-1048 partner limits assumed): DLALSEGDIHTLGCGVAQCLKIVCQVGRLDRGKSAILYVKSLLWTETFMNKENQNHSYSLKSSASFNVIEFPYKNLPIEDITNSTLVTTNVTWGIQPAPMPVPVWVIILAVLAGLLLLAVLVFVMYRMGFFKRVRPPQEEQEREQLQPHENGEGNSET
T1 sequence (P05106 27-788): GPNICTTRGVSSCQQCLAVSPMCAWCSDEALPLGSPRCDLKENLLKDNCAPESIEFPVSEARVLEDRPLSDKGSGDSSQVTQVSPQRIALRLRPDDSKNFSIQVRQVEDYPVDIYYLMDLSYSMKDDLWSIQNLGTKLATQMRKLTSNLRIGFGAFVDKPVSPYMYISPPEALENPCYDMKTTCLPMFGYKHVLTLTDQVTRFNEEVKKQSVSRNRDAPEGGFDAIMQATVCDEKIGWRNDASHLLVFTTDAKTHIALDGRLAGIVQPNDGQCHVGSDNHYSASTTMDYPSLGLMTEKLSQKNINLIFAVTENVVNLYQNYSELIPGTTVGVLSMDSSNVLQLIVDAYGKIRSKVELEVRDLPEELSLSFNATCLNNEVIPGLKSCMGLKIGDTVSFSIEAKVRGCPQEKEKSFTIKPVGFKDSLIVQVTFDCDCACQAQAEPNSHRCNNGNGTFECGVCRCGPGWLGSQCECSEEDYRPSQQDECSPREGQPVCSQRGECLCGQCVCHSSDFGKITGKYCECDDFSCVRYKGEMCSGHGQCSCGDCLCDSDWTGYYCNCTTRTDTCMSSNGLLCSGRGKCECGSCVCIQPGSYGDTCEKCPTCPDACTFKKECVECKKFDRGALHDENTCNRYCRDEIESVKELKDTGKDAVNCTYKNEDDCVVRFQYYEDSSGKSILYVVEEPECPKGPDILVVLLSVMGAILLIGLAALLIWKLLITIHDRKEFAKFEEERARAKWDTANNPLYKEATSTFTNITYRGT
From the text: The following scheme describes the split and mix assembly of the libraries: • i.) n times [BB1+Oligo1→BB1−Oligo1] in separate wells • Optionally purify product • ii.) mix all n wells into one tube • iii.) split product of ii.) into m separate wells • iv.) m times [BB2+BB1−Oligo1+Oligo2→BB2−BB1−Oligo1−Oligo2] in separate wells • Optionally purify product • v.) mix all m wells into one tube • vi.) split product of v.) into p separate wells • vii.) p times [BB3+BB2−BB1−Oligo1−Oligo2+Oligo3→BB3−BB2−BB1−Oligo1−Oligo2−Oligo3] in separate wells Optionally purify product • viii.) mix all p wells into one tube • ix.) Selection was performed and binders isolated • x.) PCR of DNA and sequencing • xi.) Analyse for building block abundancy and full sequence information
Building block abundances analysis may be done by QPCR or by sequencing full sequences and then analyzing for the abundance of individual building blocks.
Two libraries of 61,875 members (Library 1 and 2) were generated as described in example 6 above and selected for binders of the Integrin αvβ3 receptor separately. The libraries were generated with 99 different building blocks in position 1, 25 different building blocks in position 2 and 25 different building blocks in position 3.
(§1) The identified sequences were then analyzed for the abundances of building blocks at each position in the sequence. The most abundant building blocks at each position from the two libraries 1 and 2 were then used again to generate a new and smaller library of 1,365 members, which was selected for binders of the Integrin αvβ3 receptor. The library was generated with 7 different building blocks in position 1, 13 different building blocks in position 2 and 15 different building blocks in position 3.

integrin aVβ3 = integrin aVβ3 (Homo sapiens, UniProt P05106+P06756); assay: Selection of the 700-member encoded library on immobilised integrin aVβ3, then PCR, cloning and sequencing of identifier codons; conditions: for Count (times the chemical entity's codon was seen after selection): 700-member library after selection, single building block at its position; for Count (times the chemical entity's codon was seen after selection) / share of sequences containing the chemical entity after selection: out of 51 sequences
integrin aVβ3, sequence (P06756 31-889 limits assumed): as the sequence (P06756 31-889 limits assumed) above
integrin aVβ3, sequence (P06756 891-1048 partner limits assumed): as the sequence (P06756 891-1048 partner limits assumed) above
integrin aVβ3, sequence (P05106 27-788): as the sequence (P05106 27-788) above
Method: Maxisorp ELISA wells (NUNC A/S, Denmark) were coated with each 100 μL 2 μg/mL integrin aVβ3 in PBS buffer [2.8 mM NaH2PO4, 7.2 mM Na2HPO4, 0.15 M NaCl, pH 7.2] overnight at 4° C. Then the integrin solution was substituted for 200 μl blocking buffer [TBS, 0.05% Tween 20 (Sigma P-9416), 1% bovine serum alnumin (Sigma A-7030), 1 mM MnCl2] which was left on for 3 hours at room temperature. Then the wells were washed 10 times with blocking buffer and the encoded library was added to the wells after diluting it 100 times with blocking buffer. Following 2 hours incubation at room temperature the wells were washed 10 times with blocking buffer. After the final wash the wells were cleared of wash buffer and subsequently inverted and exposed to UV light at 300-350 nm for 30 seconds using a trans-illuminator set at 70% power. Then 100 μl blocking buffer without Tween-20 was immediately added to each well, the wells were shaken for 30 seconds, and the solutions containing eluted identifiers were removed for PCR amplification.
A TOPO-TA (Invitrogen) ligation reaction is assembled with 4 μl PCR product, 1 μl salt solution (Invitrogen) and 1 μl vector. Water is added to 6 μl. The reaction is then incubated at RT for 30 min. Heat-shock competent TOP10 E. coli cells are then thawed on ice and 5 μl of the ligation reaction is added to the thawed cells. The cells are then incubated 30 min on ice, heatshocked in 42° C. water for 30 sec, and then put on ice again. 250 μl of growth medium is added to the cells and they are incubated 1 h at 37° C. The medium containing cells is then spread on a growth plate containing 100 μg/ml ampicillin and incubated at 37° C. for 16 hours.
Individual E. coli clones are then picked and transferred to PCR wells containing 50 μl water. These 50 μl were incubated at 94° C. for 5 minutes and used in a 20 μl in a 25 μl PCR reaction with […] of each TOPO primer M13 forward & M13 reverse and Ready-To-Go PCR beads (Amersham Biosciences). The following PCR profile is used: 94° C. 2 min, then 30×(94° C. 4 sec, 50° C. 30 sec, 72° C. 1, min) then 72° C. 10 min. Primers and nucleotides are then degraded by adding 1 μl 1:1 EXO/SAP mixture (USB corp.) to 2 μl PCR product and incubating at 37° C. for 15 min and then 80° C. for 15 min to heat-inactivate the enzymes. […] T7 primer is added and water is added to 12 μl. Then 8 μl DYEnamic ET cycle sequencing Terminator Mix (Applied biosystems) is added to each well. A thermocycling profile of 30×(95° C. 20 sec, 50° C. 15 sec, 60° C. 1 min) is then run. Then 10 μl water is added to each well and sequencing reactions are purified using seq96 spinplates (Amersham Biosciences). Reactions are then run on a MegaBace capillary electrophoresis instrument (Molecular Dynamics) using injection parameters 2 kV, 50 sec and run parameters: 9 kV 45 min and analyzed using Contig Express software (Informax).
After the selection as described above, the codons in the identifier oligonucleotides were analysed. Before the analysis, the identifier oligonucleotides were amplified using the constant flanking regions and the amplified material was used in the identifier sequence analysis.

Integrin αvβ3 receptor [2] = molecular target: T1, Integrin αvβ3 receptor; assay: Selection of the second-generation library (Library 3, 1,365 members) for binders of the Integrin αvβ3 receptor, then sequencing of isolated identifiers; conditions: 31 analysed sequences
Method: as §1
A subset of the isolated sequences from the library post selection was analysed:
These sequences could be translated into the following building block compositions: […]

Row | SMILES | Count (times the chemical entity's codon was seen after selection) (integrin aVβ3) | other results
1 | C=CCCC(=O)N[C@@H]1CC[C@H](C(=O)O)C1 [BBA0004222] | – | More abundant in position 2 in library no. (Integrin αvβ3 receptor [1]): 2
2 | C=CCCC(=O)NCC(=O)O [BBA0000592] | – | More abundant in position 2 in library no. (Integrin αvβ3 receptor [1]): 1
3 | C=CCCC(=O)N1CCCC(C(=O)O)C1 (stereo not shown) [BBA0000832] | – | More abundant in position 2 in library no. (Integrin αvβ3 receptor [1]): 1
4 | C=CCCC(=O)N1CCCC[C@H]1C(=O)O [BBA0004232] | 2 | –
5 | C=CCCC(=O)N[C@H]1CC[C@@H](C(=O)O)C1 [BBA0004212] | 2 | –
6 | CC(CCCC(=O)O)Nc1ccccn1 (stereo not shown) [BBA0001401] | – | More abundant in position 3 in library no. (Integrin αvβ3 receptor [1]): 2
7 | C=CCCC(=O)N[C@H]1CCCC[C@H]1C(=O)O [BBA0003152] | 1 | –
8 | CC(C)(C)OC(=O)NC(CCCCNC(=O)c1ccccn1)C(=O)O (stereo not shown) [BBA0008312] | 1 | –
9 | C=CCCC(=O)N1CCC[C@H]1C(=O)O [BBA0003142] | 1 | –
10 | N[C@@H](CC(=O)O)C(=O)O [BB-A-000098, L-Asp] | 47 | building block abundance per position in sequences isolated post selection (Integrin αvβ3 receptor [2]): dominated; share of the chemical entity before the selection (integrin aVβ3): 25%; share of sequences containing the chemical entity after selection (integrin aVβ3): 92%; More abundant in position 3 in library no. (Integrin αvβ3 receptor [1]): 1
11 | C=CCCC(=O)C(CCC(=O)O)CC1CC1 (stereo not shown) [BBA0001011] | 1 | –
12 | C=CCCC(=O)NCc1ccc(C(=O)O)cc1 [BBA0003172] | 2 | –
13 | C=CCCC(=O)N(CCC)CCC(=O)O [BBA0001101] | 2 | –
14 | C=CCCC(=O)N1CC(C(=O)O)C1 [BBA0001582] | 13 | –
15 | C=CCCC(=O)NCCCC(=O)O [BBA0004182] | 5 | –
16 | C=CCCC(=O)N[C@@H](C)CC(=O)O [BBA000099, Gly] | 14 | building block abundance per position in sequences isolated post selection (Integrin αvβ3 receptor [2]): dominated; share of the chemical entity before the selection (integrin aVβ3): 4%; share of sequences containing the chemical entity after selection (integrin aVβ3): 27%
17 | CC(CCC(=O)O)Nc1ccccn1 (stereo not shown) [BBA0001391] | 9 | More abundant in position 3 in library no. (Integrin αvβ3 receptor [1]): 2
18 | C=CCCC(=O)N1CCC[C@@H]1C(=O)O [BBA000064] | 1 | –
19 | N[C@H](CC(=O)O)C(=O)O [BBA000152, D-Asp] | – | building block abundance per position in sequences isolated post selection (Integrin αvβ3 receptor [2]): also found; More abundant in position 1 in library no. (Integrin αvβ3 receptor [1]; building block chosen for Library 3 position 1): 1; More abundant in position 2 in library no. (Integrin αvβ3 receptor [1]): 2
20 | C=CCCC(=O)NCc1cccc(C(=O)O)c1 [BBA0003132] | 1 | –
21 | C=CCCC(=O)N1CCCC[C@@H]1C(=O)O [BBA0004242] | 6 | –
22 | O=C(O)CCCNc1ccccn1 [BBA0000531] | 35 | share of the chemical entity before the selection (integrin aVβ3): 14%; share of sequences containing the chemical entity after selection (integrin aVβ3): 68%; More abundant in position 3 in library no. (Integrin αvβ3 receptor [1]): 2
23 | O=C(O)CCCc1ccc2c(n1)NCCC2 [BBA0001006] | 4 | –
24 | O=C(O)c1csc(-c2cccnc2)n1 [BBA0008512] | 2 | –
